{
  "source": "patent US10695296B2",
  "about": "“Formulations, methods, kit, and dosage forms for improved stability of an active pharmaceutical ingredient” (Asana BioSciences, LLC, priority 2017, dated 2020)",
  "experiment": "Dissolution, USP <711> Apparatus 2 paddle method at 50 rpm",
  "format": "physicochemical",
  "details": "500 ml 0.01 N HCl or 50 mM phosphate buffer (pH 6.8), 0.5% sodium lauryl sulfate, paddle 50 rpm",
  "procedure": "The dissolution characteristics of the spray-dried formulation prepared in Example 2 above were measured by suspending the formulation in 500 ml 0.01 N HCl or 50 mM phosphate buffer (pH 6.8), 0.5% sodium lauryl sulfate, and measuring dissolution by the USP <711> Apparatus 2 (paddle method) at 50 rpm. As a control, particles of crystalline active ingredient N-(3-(2-(6-amino-4-(trifluoromethyl)pyridin-3-yl)-4-morpholinopyrido[3,2-d]pyrimidin-6-yl)-2-fluorophenyl)-3-fluoropropane-1-sulfonamide (as prepared in Example 7 below) was suspended in either 500 ml 0.01 N HCl or 50 mM phosphate buffer (pH 6.8), 0.5% sodium lauryl sulfate and dissolution measured by the same method.",
  "data": [
    {"compound": "Nc1cc(C(F)(F)F)c(-c2nc(N3CCOCC3)c3nc(-c4cccc(NS(=O)(=O)CCCF)c4F)ccc3n2)cn1", "note": "[crystalline active ingredient, N-(3-(2-(6-amino-4-(trifluoromethyl)pyridin-3-yl)-4-morpholinopyrido[3,2-d]pyrimidin-6-yl)-2-fluorophenyl)-3-fluoropropane-1-sulfonamide]", "values": [
      {"measurement": "dissolution state after 60 minutes", "result": "still not fully dissolved"}
    ]}
  ]
}
